Data reported in patent publication US20210008161A1, “METHODS AND COMPOSITIONS FOR IMPROVED HOMOLOGY DIRECTED REPAIR” (CRISPR THERAPEUTICS AG, priority 2019, published 2021).

Experiments:
HEK293 T cells [1] = experiment: HDR gene-editing at GSD1a locus with ssODN homology donors; type: cell-based, human; details: for HDR efficiency: 1.25 μM SCR7 or 10 μM RS-1, FIG. 3
Description: 2×10^5 cells were edited with 1 μM Cas9 and 1.5 μM gRNA. The cells were transfected with two different ssODNs homology donors: 93-50 (SEQ ID NO: 39) or 25-100 (SEQ ID NO: 40). These two ssODN donors contain homology arms spanning both sides of the double-stranded break induced by the Cas9-guide and facilitate correction of a point mutation in the G6PC gene sequence by HDR. Cells were edited with 100 μM ssODN. The cells were treated with 2.5 μM Nu7441, 1.25 μM SCR7, or 10 μM RS-1 and the effect on HDR efficiency was evaluated.

HEK293 T cells [2] = experiment: GFP to BFP fluorescent reporter assay of HDR efficiency (AAVS1 locus); type: cell-based, human
Description: The effect of DNA PK inhibition by Nu7441 correction of a DSB by the NHEJ pathway (e.g., introduce an indel at the DSB site) or HDR pathway (e.g., introduce a gene mutation encoded by a homology donor at the DSB site) was assessed using the reporter system described in Example 1. In this case gene-editing was evaluated in HEK293 T cells expressing GFP in the AAVS1 locus. To introduce a gene edit that converts GFP to BFP, cells were electroporated with ribonucleoprotein (RNP) comprised of Cas9 and gRNA1 (GFP target sequence identified by SEQ ID NO: 9; sgRNA spacer sequence identified by SEQ ID NO: 10) or gRNA2 (GFP target sequence identified by SEQ ID NO: 11; sgRNA spacer identified by SEQ ID NO: 12) that targets the GFP gene encoded in the AAVS1 locus. The cells were also transfected with ssODNs that encoded the gene correction necessary to convert GFP to BFP and homology arms complimentary to the sequence upstream and downstream of the target gene cut site. The efficiency of HDR repair was determined by measuring the level of cell BFP fluorescence. The efficiency of cutting (indel information) was monitored by TIDE analysis.
Shown in FIGS. 2A-2B is a comparison of HDR editing efficiency for cells treated with Nu7441, SCR7, or RS-1. Shown in FIG. 2A are cells were electroporated with RNP comprising Cas9 and gRNA1 (GFP target sequence shown in SEQ ID NO: 9; sgRNA spacer sequence identified by SEQ ID NO: 10). 2×10^5 cells were edited with 1 μM Cas9 and 1.5 μM gRNA1. The cells were transfected with four different ssODNs. These included ssODN 1067 (SEQ ID NO: 29) and ssODN 1069 (SEQ ID NO: 31) that are complimentary to the DNA strand containing the PAM sequence and ssODN 1068 (SEQ ID NO: 30) and ssODN 1070 (SEQ ID NO: 32) that are complimentary to the DNA strand not containing the PAM sequence. Cells were edited with 100 μM ssODN. A concentrated stock solution of each inhibitor was prepared in DMSO and diluted to a final concentration of 2.5 μM Nu7441, 1.25 μM SCR7, or 10 μM RS-1. HDR efficiency was compared relative to treatment with DMSO alone or to treatment with RNP-only.
Shown in FIG. 2B are cells were electroporated with RNP comprising Cas9 and gRNA2 (GFP target sequence shown in SEQ ID NO: 11; sgRNA spacer sequence shown in SEQ ID NO: 12). The cells were transfected with four different ssODNs. These included ssODN 1061 (SEQ ID NO: 33) and ssODN 1063 (SEQ ID NO: 35) that are complimentary to the DNA strand containing the PAM sequence and ssODN 1062 (SEQ ID NO: 34) and ssODN 1064 (SEQ ID NO: 36) that are complimentary to the DNA strand not containing the PAM sequence.

[3] = gRNA1, ssODN 1067-1070, 2.5 μM Nu7441, 1.25 μM SCR7 or 10 μM RS-1, vs DMSO, FIG. 2A

| SMILES | fold increase in HDR efficiency (HEK293 T cells [1]; 2.5 μM Nu7441, over DMSO alone, FIG. 3) | HDR efficiency (HEK293 T cells [2]; [3]) | HDR efficiency (HEK293 T cells [2]; gRNA2, ssODN 1061-1064, 2.5 μM Nu7441) | HDR efficiency (HEK293 T cells [1]) |
| --- | --- | --- | --- | --- |
| O=c1cc(N2CCOCC2)oc2c(-c3cccc4c3sc3ccccc34)cccc12 [Nu7441] | approximately 1.7 fold | improved | improved |  |
| O=C(Nc1ccc(Br)cc1)c1ccc(Br)c(S(=O)(=O)NCc2ccccc2)c1 [RS-1] |  | no improvement |  | no effect |
| O=c1[nH]c(=S)[nH]c(N=Cc2ccccc2)c1N=Cc1ccccc1 [SCR7] |  | no improvement |  | no effect |
